Experimental data published in ChEMBL document CHEMBL3774360, “Potent multitarget FAAH-COX inhibitors: Design and structure-activity relationship studies” (Eur J Med Chem, 2016).
The source made the active and inactive calls. No cut-off for these calls is given here.

Experiments:
[1] = biological target: B2 bradykinin receptor (Homo sapiens) (UniProt P30411); assay: Binding affinity to human bradykinin 2 receptor at 10 uM by radioligand binding assay
Homo sapiens [2] = species on record: Homo sapiens; assay: Binding affinity to P2Y receptor (unknown origin) at 10 uM by radioligand binding assay
Homo sapiens [3] = species on record: Homo sapiens; assay: Binding affinity to human sigma receptor at 10 uM by radioligand binding assay
[4] = biological target: Proteinase-activated receptor 2 (Homo sapiens) (UniProt P55085); assay: Binding affinity to human PAR2 receptor at 10 uM by radioligand binding assay
[5] = biological target: Glucocorticoid receptor (Homo sapiens) (UniProt P04150); assay: Binding affinity to human glucocorticoid receptor at 10 uM by radioligand binding assay
[6] = biological target: Substance-P receptor (Homo sapiens) (UniProt P25103); assay: Binding affinity to human NK1 receptor at 10 uM by radioligand binding assay
[7] = biological target: Histone deacetylase 3 (Homo sapiens) (UniProt O15379); assay: Binding affinity to human HDAC3 at 10 uM
[8] = biological target: Prostaglandin E2 receptor EP1 subtype (Homo sapiens) (UniProt P34995); assay: Binding affinity to human EP1 receptor at 10 uM by radioligand binding assay
[9] = biological target: Histone deacetylase 11 (Homo sapiens) (UniProt Q96DB2); assay: Binding affinity to human HDAC11 at 10 uM
[10] = biological target: Kinesin-like protein KIF11 (Homo sapiens) (UniProt P52732); assay: Binding affinity to human Eg5 at 10 uM
[11] = biological target: Protein deacetylase HDAC6 (Homo sapiens) (UniProt Q9UBN7); assay: Binding affinity to human HDAC6 at 10 uM
Protein deacetylase HDAC6 (Homo sapiens), sequence (Q9UBN7 whole entry): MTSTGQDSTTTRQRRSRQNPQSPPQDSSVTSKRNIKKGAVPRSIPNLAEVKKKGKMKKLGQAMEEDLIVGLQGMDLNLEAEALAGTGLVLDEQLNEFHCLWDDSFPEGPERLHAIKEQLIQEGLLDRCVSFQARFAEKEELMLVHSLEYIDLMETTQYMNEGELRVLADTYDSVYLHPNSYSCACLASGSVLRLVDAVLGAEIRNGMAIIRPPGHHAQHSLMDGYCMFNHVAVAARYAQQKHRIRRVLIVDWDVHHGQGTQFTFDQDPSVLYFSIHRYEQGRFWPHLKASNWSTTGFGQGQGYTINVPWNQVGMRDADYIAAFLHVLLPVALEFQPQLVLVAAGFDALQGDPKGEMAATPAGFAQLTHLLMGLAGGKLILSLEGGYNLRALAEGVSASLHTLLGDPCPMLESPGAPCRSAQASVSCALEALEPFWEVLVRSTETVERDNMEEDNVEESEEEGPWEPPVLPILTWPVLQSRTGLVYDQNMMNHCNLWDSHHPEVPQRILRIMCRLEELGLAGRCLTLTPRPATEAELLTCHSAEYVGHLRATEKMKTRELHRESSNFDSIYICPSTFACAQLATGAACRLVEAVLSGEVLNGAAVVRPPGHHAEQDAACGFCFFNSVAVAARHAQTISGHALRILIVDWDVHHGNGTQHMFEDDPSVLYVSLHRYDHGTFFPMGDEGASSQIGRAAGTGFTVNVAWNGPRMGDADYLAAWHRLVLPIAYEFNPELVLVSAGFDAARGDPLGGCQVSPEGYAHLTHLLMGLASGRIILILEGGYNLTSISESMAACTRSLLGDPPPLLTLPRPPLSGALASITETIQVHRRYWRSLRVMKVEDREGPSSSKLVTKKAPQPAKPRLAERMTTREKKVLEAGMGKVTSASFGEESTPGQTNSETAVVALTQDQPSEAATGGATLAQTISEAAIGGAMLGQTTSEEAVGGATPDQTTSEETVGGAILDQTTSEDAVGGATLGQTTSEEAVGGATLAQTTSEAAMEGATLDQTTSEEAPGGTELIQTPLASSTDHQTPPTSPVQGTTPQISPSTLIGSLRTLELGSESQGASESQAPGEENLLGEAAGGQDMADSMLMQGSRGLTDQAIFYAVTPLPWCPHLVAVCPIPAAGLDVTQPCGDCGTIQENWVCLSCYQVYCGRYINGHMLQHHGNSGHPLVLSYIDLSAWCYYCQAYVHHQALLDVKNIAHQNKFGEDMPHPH

Homo sapiens [12] = species on record: Homo sapiens; assay: Binding affinity to L-type calcium channel dihydropyridine binding site (unknown origin) at 10 uM by radioligand binding assay
[13] = biological target: Protein kinase C alpha type (Homo sapiens) (UniProt P17252); assay: Binding affinity to human PKC-alpha at 10 uM
[14] = biological target: Adenosine receptor A2a (Homo sapiens) (UniProt P29274); assay: Binding affinity to human adenosine A2A receptor at 10 uM by radioligand binding assay
Homo sapiens [15] = species on record: Homo sapiens; assay: Binding affinity to small conductance calcium-activated potassium channel (unknown origin) at 10 uM by radioligand binding assay
Homo sapiens [16] = species on record: Homo sapiens; assay: Binding affinity to GABA transporter (unknown origin) at 10 uM by radioligand binding assay
[17] = biological target: Progesterone receptor (Homo sapiens) (UniProt P06401); assay: Binding affinity to human progesterone receptor at 10 uM by radioligand binding assay
[18] = test system: Voltage-gated potassium channel; assay: Binding affinity to voltage-gated potassium channel (unknown origin) at 10 uM by radioligand binding assay; format: protein assay; details: human
[19] = biological target: Beta-2 adrenergic receptor (Homo sapiens) (UniProt P07550); assay: Binding affinity to beta-2 adrenergic receptor (unknown origin) at 10 uM by radioligand binding assay
Beta-2 adrenergic receptor (Homo sapiens), sequence (P07550 whole entry, looked up): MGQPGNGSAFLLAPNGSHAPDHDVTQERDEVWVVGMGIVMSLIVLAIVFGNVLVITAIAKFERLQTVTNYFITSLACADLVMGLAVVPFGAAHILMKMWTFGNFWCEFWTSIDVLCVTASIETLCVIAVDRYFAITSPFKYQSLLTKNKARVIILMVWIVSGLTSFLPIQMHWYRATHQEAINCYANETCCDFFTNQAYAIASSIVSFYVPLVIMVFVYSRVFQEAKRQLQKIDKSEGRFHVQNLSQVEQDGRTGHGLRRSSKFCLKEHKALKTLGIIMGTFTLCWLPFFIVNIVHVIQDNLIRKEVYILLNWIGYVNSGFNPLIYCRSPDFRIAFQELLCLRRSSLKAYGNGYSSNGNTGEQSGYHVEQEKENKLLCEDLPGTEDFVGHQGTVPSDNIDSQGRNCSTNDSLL

[20] = biological target: D(1A) dopamine receptor (Homo sapiens) (UniProt P21728); assay: Binding affinity to human dopamine D1 receptor at 10 uM by radioligand binding assay
[21] = biological target: Cannabinoid receptor 2 (Homo sapiens) (UniProt P34972); assay: Binding affinity to human cannabinoid receptor 2 at 10 uM by radioligand binding assay
[22] = biological target: Adrenergic receptor alpha-1 (Homo sapiens) (UniProt P35348+P25100+P35368); assay: Binding affinity to human alpha-1 adrenergic receptor (unknown origin) at 10 uM by radioligand binding assay
[23] = biological target: Prostaglandin G/H synthase 1 (Homo sapiens) (UniProt P23219); assay: Binding affinity to human COX1 at 10 uM
Homo sapiens [24] = species on record: Homo sapiens; assay: Binding affinity to 5-HT1 receptor (unknown origin) at 10 uM
[25] = biological target: Secretory phospholipase A2 receptor (Homo sapiens) (UniProt Q13018); assay: Binding affinity to human sPLA2 at 10 uM
Secretory phospholipase A2 receptor (Homo sapiens), sequence (Q13018 whole entry): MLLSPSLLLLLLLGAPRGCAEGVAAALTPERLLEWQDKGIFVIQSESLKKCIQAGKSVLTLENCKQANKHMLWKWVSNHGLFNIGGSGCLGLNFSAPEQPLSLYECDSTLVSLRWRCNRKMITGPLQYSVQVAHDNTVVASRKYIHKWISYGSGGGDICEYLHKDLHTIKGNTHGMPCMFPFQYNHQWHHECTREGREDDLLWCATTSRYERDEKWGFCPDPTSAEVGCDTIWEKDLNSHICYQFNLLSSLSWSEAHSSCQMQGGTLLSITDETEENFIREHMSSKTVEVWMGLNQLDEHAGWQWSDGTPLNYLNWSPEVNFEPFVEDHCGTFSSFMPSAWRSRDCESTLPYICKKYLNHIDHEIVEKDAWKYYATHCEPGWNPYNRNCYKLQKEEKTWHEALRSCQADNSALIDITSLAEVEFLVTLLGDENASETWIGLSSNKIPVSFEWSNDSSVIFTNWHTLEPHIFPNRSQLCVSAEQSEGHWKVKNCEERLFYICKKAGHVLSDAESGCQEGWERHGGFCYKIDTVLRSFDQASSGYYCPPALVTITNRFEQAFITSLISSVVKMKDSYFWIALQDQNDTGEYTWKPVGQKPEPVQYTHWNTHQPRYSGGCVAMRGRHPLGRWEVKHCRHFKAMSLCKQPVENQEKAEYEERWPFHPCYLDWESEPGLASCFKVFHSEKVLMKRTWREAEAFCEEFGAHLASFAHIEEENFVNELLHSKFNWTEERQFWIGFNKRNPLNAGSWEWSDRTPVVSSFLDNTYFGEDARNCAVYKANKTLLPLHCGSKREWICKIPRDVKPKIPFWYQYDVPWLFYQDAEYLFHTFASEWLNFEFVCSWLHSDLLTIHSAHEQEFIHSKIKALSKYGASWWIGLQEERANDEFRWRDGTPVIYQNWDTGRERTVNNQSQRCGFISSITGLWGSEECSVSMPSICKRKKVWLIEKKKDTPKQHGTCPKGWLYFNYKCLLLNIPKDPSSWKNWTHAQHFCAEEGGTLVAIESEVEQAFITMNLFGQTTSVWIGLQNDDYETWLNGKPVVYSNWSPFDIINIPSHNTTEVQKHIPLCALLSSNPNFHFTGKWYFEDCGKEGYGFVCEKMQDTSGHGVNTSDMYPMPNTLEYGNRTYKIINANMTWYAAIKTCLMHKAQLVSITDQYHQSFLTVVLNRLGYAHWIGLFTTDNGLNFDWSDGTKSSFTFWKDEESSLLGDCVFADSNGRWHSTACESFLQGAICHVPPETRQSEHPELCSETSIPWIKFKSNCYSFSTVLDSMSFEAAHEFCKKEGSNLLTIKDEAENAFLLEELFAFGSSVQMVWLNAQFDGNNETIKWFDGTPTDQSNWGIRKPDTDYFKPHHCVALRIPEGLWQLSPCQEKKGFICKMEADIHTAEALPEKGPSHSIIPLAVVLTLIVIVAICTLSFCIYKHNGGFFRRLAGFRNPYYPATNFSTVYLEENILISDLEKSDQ

[26] = biological target: Sodium-dependent serotonin transporter (Homo sapiens) (UniProt P31645); assay: Binding affinity to human 5-HT transporter at 10 uM by radioligand binding assay
[27] = biological target: Type-1 angiotensin II receptor (Homo sapiens) (UniProt P30556); assay: Binding affinity to human angiotensin receptor 1 at 10 uM by radioligand binding assay
[28] = biological target: Cysteinyl leukotriene receptor 1 (Homo sapiens) (UniProt Q9Y271); assay: Binding affinity to human cysteinyl leukotriene receptor 1 at 10 uM by radioligand binding assay
[29] = biological target: Leukotriene B4 receptor (Homo sapiens) (UniProt Q9NPC1+Q15722); assay: Binding affinity to human leukotriene B4 receptor at 10 uM by radioligand binding assay; format: protein assay
[30] = biological target: Endothelin-1 receptor (Homo sapiens) (UniProt P25101); assay: Binding affinity to human ETA receptor at 10 uM by radioligand binding assay
[31] = biological target: cGMP-dependent 3',5'-cyclic phosphodiesterase (Homo sapiens) (UniProt O00408); assay: Binding affinity to human PDE2A1 at 10 uM
Homo sapiens [32] = species on record: Homo sapiens; assay: Binding affinity to ATP-sensitive potassium channel (unknown origin) at 10 uM by radioligand binding assay
[33] = biological target: Histone deacetylase 4 (Homo sapiens) (UniProt P56524); assay: Binding affinity to human HDAC4 at 10 uM
[34] = biological target: Gastrin/cholecystokinin type B receptor (Homo sapiens) (UniProt P32239); assay: Binding affinity to human cholecystokinin receptor type B at 10 uM by radioligand binding assay
[35] = biological target: M-phase inducer phosphatase 1 (Homo sapiens) (UniProt P30304); assay: Binding affinity to CDC25A (unknown origin) at 10 uM
[36] = biological target: B1 bradykinin receptor (Homo sapiens) (UniProt P46663); assay: Binding affinity to human bradykinin 1 receptor at 10 uM by radioligand binding assay
B1 bradykinin receptor (Homo sapiens), sequence (P46663 whole entry): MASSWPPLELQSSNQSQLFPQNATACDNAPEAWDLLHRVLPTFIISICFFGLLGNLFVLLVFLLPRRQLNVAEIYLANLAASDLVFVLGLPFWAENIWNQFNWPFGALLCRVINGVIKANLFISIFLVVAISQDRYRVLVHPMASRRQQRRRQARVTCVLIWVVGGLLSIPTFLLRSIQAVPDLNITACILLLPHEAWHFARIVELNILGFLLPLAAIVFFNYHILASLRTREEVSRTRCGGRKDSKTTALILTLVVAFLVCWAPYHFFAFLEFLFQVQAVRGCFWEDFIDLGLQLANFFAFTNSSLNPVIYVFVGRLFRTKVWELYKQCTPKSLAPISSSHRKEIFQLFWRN

Mus musculus [37] = assay: In-vivo inhibition of COX in mouse plasma assessed as decrease in 6-keto-PGF1-alpha level at 1 mg/kg, iv after 1 hr by LC-MS/MS analysis; format: functional, organism-based
Homo sapiens [38] = species on record: Homo sapiens; assay: Binding affinity to GABA-gated chloride channel (unknown origin) at 10 uM by radioligand binding assay
[39] = biological target: Endothelin receptor type B (Homo sapiens) (UniProt P24530); assay: Binding affinity to human ETB receptor at 10 uM by radioligand binding assay
[40] = biological target: Neuronal acetylcholine receptor; alpha4/beta2 (Homo sapiens) (UniProt P17787+P43681); assay: Binding affinity to human N neuronal alpha4beta2 receptor at 10 uM by radioligand binding assay; format: protein-complex assay
[41] = biological target: NAD-dependent protein deacetylase sirtuin-2 (Homo sapiens) (UniProt Q8IXJ6); assay: Inhibition of human sirtuin 2 at 10 uM; design: scale not given: the % may be the effect or the level left
Mus musculus [42] = assay: In-vivo inhibition of COX in mouse plasma assessed as decrease in TXA2 level at 1 mg/kg, iv after 1 hr by LC-MS/MS analysis; format: functional, organism-based
[43] = biological target: Dual specificity calcium/calmodulin-dependent 3',5'-cyclic nucleotide phosphodiesterase 1B (Homo sapiens) (UniProt Q01064); assay: Binding affinity to human PDE1B at 10 uM
Dual specificity calcium/calmodulin-dependent 3',5'-cyclic nucleotide phosphodiesterase 1B (Homo sapiens), sequence (Q01064 whole entry): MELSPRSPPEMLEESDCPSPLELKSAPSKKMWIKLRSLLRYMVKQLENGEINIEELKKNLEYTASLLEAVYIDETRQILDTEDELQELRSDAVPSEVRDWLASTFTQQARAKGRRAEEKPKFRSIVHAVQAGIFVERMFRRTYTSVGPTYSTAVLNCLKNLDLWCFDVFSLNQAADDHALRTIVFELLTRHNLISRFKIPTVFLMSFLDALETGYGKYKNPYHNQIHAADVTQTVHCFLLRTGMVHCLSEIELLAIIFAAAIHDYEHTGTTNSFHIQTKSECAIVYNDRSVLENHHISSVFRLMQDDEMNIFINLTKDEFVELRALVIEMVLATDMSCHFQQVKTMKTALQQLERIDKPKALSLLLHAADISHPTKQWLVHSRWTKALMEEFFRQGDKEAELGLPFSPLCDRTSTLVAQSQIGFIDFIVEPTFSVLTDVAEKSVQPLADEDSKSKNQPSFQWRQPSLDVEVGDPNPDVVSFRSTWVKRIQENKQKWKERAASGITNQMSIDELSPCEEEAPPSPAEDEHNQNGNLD

[44] = biological target: Nociceptin receptor (Homo sapiens) (UniProt P41146); assay: Binding affinity to human NOP receptor at 10 uM by radioligand binding assay

B2 bradykinin receptor (Homo sapiens), sequence (P30411 whole entry): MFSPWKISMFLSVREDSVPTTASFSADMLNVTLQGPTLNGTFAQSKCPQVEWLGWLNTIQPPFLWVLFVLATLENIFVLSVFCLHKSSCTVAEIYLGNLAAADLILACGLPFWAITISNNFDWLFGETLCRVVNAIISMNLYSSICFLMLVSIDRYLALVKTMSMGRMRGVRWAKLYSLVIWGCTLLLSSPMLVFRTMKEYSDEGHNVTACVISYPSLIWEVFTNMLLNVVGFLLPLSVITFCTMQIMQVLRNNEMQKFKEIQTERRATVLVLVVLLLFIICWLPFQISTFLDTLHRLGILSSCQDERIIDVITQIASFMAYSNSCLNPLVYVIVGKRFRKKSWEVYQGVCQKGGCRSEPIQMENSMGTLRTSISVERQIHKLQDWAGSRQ

With CCCCCCNC(=O)Oc1cccc(-c2ccc([C@H](C)C(=O)O)cc2F)c1 the Activity [1] was -4.3%, the Activity (Homo sapiens [2]) was 17.7% and the Activity (Homo sapiens [3]) was -6.9%. The Activity [4] was 3.2%, the Activity [5] was 2.3% and the Activity [6] was -6.3%. The Activity [7] was -4.3%, the Activity [8] was -8.8% and the Activity [9] was -52%. It also gave an Activity [10] of 3.5%, an Activity [11] of -10.6% and an Activity (Homo sapiens [12]) of -19.3%. It also gave an Activity [13] of -26.1%, an Activity [14] of -7.3% and an Activity (Homo sapiens [15]) of -10.6%. The Activity (Homo sapiens [16]) was -3.3%, the Activity [17] was -9.5% and the Activity [18] was -9.9%. It also gave an Activity [19] of -7.5%, an Activity [20] of -5.6% and an Activity [21] of -3%. For the same compound, the Activity [22] was -3.8%, the Activity [23] was 99.2% and the Activity (Homo sapiens [24]) was 7.8%. It also gave an Activity [25] of 0.4%, an Activity [26] of -1.4% and an Activity [27] of -3.4%. The Activity [28] was 0%, the Activity [29] was 1.2% and the Activity [30] was -6.2%. It also gave an Activity [31] of -1.4%, an Activity (Homo sapiens [32]) of 10.1% and an Activity [33] of -8.7%. For the same compound, the Activity [34] was 26.5%, the Activity [35] was -6.3% and the Activity [36] was -5.1%. For the same compound, the inhibition (Mus musculus [37]) was “Active”, the Activity (Homo sapiens [38]) was 36% and the Activity [39] was -17.5%. For the same compound, the Activity [40] was -5.6%, the Activity [41] was 1.3% and the inhibition (Mus musculus [42]) was “Active”. It also gave an Activity [43] of 28.3% and an Activity [44] of -1.7%.
